{"source": "paper PMC5351967", "about": "“Blue-light induced accumulation of reactive oxygen species is a consequence of the Drosophila cryptochrome photocycle” (PLoS ONE, 2017)", "molecular_target": "T1, DmCry (Drosophila melanogaster, UniProt O77059)", "T1 construct": "gene cry", "T1 sequence (O77059 whole entry)": "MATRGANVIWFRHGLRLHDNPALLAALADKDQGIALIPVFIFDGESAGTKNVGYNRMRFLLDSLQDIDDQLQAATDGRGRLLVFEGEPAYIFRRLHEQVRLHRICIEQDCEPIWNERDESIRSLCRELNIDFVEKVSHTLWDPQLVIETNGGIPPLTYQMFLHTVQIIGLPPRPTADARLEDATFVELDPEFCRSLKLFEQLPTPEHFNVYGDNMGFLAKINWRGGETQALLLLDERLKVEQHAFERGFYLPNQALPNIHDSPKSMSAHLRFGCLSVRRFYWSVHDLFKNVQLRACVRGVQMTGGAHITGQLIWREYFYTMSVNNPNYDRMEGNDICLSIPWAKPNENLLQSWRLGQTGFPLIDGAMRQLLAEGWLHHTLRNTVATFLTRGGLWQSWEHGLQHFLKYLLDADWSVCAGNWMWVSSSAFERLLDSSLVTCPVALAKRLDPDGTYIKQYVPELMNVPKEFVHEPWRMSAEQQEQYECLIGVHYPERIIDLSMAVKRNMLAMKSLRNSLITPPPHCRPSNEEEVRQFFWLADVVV", "experiment": "UV-visible absorption spectroscopy of protein-bound flavin, photoreduction and dark reoxidation", "format": "binding", "details": "co-purified cofactor; 50 mM phosphate pH 7.5, 10 mM beta-mercaptoethanol, 21 °C; blue light", "data": [{"smiles": "Cc1cc2nc3c(=O)[nH]c(=O)nc-3n(C[C@H](O)[C@H](O)[C@H](O)COP(=O)(O)OP(=O)(O)OC[C@H]3O[C@@H](n4cnc5c(N)ncnc54)[C@H](O)[C@@H]3O)c2cc1C", "note": "[FAD]", "values": [{"measurement": "UV-visible absorption spectroscopy of protein-bound flavin, photoreduction and d", "value": "Flavin reduction to the anionic radical (FAD^•-) redox form could then be observed"}]}]}
